IC50 data for 9 compounds are collected here from US20230382911A1 (Hoffmann-La Roche Inc., priority 2021, published 2023).

What is called IC50 is the concentration at which inhibition is half-maximal.

For the test, the target named is Recombinant human Mat2a (Homo sapiens (Human), UniProt P31153). Nature of the test: Determination of Mat2A activity: 384 well format absorbance-based Mat2A inhibition assay. It is filed as biochemical. The conditions noted are these: 12.5 nM Mat2A, 100 μM ATP and Methionine, 2% DMSO, 120 minutes at RT, Biomol Green, absorbance at 635 nm. Here is the method: Determination of Mat2A Activity
Recombinant human Mat2a, sequence (P31153 whole entry): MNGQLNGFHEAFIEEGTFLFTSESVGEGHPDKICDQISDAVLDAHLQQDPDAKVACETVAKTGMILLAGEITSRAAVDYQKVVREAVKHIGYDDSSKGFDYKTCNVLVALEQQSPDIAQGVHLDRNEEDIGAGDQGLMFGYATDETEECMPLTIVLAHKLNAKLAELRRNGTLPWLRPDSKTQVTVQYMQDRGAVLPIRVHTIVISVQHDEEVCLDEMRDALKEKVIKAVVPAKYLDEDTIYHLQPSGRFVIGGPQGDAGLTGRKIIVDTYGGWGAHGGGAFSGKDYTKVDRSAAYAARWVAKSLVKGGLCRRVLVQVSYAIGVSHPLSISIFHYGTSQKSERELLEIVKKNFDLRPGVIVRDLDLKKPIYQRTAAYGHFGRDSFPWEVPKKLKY
Measurement of Mat2A inhibition is performed in 384 well format absorbance-based assay.
Recombinant human Mat2a (12.5 nM) and serial diluted compounds in DMSO (range of concentrations from 10 μM to […]) or controls (DMSO) are incubated for 15 minutes at room temperature (RT) in assay buffer containing 50 mM HEPES pH 7.5, 50 mM KCl, 50 mM MgCl2, 0.01% Tween 20 and 10 mM DTT. The reaction is initiated by the addition of the combined substrates ATP and Methionine, each at a final concentration of 100 μM. Final assay condition are 12.5 nM Mat2A, 100 μM ATP and Methionine Substrates and 2% DMSO. After 120 minutes of incubation at RT, the reaction is stopped by the addition of Biomol Green. The absorbance signal is measured at λ=635 nm with a multiplate reader (BMG Pherastar reader or equivalent) after 30 min of equilibration at RT.
Take `COc1c(Cl)cccc1C(=O)n1nc(N)c2ccc(C3CC3)nc21` [Example 71, (3-amino-6-cyclopropyl-1H-pyrazolo[3,4-b]pyridin-1-yl)(3-chloro-2-methoxyphenyl)methanone]: the IC50 came to 480 nM. In the case of `COc1c(C#N)cccc1C(=O)n1nc(N)c2ccc(C3CC3)nc21` [Example 72, 3-(3-amino-6-cyclopropyl-1H-cyclopropyl-1H-pyrazolo[3,4-b]pyridine-1-carbonyl)-2-methoxybenzonitrile], the IC50 came to 37 nM.

Take `Nc1nn(C(=O)C2CCCOC2)c2nc(C3CC3)ccc12` (stereo not drawn) [Example 73, (3-amino-6-cyclopropyl-1H-cyclopropyl-1H-pyrazolo[3,4-b]pyridin-1-yl)(tetrahydro-2H-pyran-3-yl)methanone]: the IC50 stood at 180 nM.

For the compound `Cc1nccnc1C(=O)n1nc(N)c2ccc(C3CC3)nc21` [Example 74, (3-amino-6-cyclopropyl-1H-pyrazolo[3,4-b]pyridin-1-yl)(3-methylpyrazin-2-yl)methanone], the IC50 came out at 220 nM. Take `COc1ncccc1C(=O)n1nc(N)c2ccc(C3CC3)nc21` [Example 75, (3-amino-6-cyclopropyl-1H-pyrazolo[3,4-b]pyridin-1-yl)(2-methoxypyridin-3-yl)methanone]: the IC50 was determined as 26 nM. For the compound `Nc1nn(C(=O)c2cccnc2Cl)c2nc(C3CC3)ccc12` [Example 76, (3-amino-6-cyclopropyl-1H-pyrazolo[3,4-b]pyridin-1-yl)(2-chloropyridin-3-yl)methanone], the IC50 was determined as 17 nM. On to `Nc1nn(C(=O)c2cccnc2C(F)(F)F)c2nc(C3CC3)ccc12` [Example 77, (3-amino-6-cyclopropyl-1H-pyrazolo[3,4-b]pyridin-1-yl)(2-(trifluoromethyl)pyridin-3-yl)methanone], for which the IC50 amounted to 31 nM. In the case of `Cc1nnccc1C(=O)n1nc(N)c2ccc(C3CC3)nc21` [Example 78, (3-amino-6-cyclopropyl-1H-pyrazolo[3,4-b]pyridin-1-yl)(3-methylpyridazin-4-yl)methanone], the IC50 came out at 200 nM. In the case of `Cc1nscc1C(=O)n1nc(N)c2ccc(C3CC3)nc21` [Example 79, (3-amino-6-cyclopropyl-1H-pyrazolo[3,4-b]pyridin-1-yl)(3-methylisothiazol-4-yl)methanone] it was 150 nM.
